# In US7829560B2, “1,4-disubstituted naphthalenes as inhibitors of P38 MAP kinase” (Arqule, Inc., priority 2004, dated 2010):
# How the values were obtained:
# [1] = target: T1, p38α (Homo sapiens, UniProt Q16539); experiment: p38 MAP Kinase assay: inhibition of ATF2 phosphorylation, ELISA; format: biochemical; conditions: ATF2 phosphorylation; read-out: [ENZ] P38 ALPHA, IC50, ELISA
# T1 construct: p38 MAP Kinases are recombinant human full-length proteins with an amino-terminal GST fusion; GST (N); purchased Upstate Biotechnology Inc; host or cells: E. coli
# T1 sequence (Q16539 whole entry, the tested form may be a part): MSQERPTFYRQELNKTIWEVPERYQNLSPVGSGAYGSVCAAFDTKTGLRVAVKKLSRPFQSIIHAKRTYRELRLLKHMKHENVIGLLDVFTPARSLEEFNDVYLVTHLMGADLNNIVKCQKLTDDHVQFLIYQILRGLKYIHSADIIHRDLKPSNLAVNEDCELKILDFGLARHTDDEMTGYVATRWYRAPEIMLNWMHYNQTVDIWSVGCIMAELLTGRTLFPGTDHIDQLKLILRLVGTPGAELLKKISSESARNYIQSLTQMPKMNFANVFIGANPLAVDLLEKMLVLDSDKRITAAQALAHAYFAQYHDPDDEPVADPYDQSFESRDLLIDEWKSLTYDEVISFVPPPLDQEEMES
# Summary of the method: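 GST-tagged full-length human p38 MAP kinase with GST-ATF2 (aa 19–96; 1.25 μM) and 40 μM ATP in HEPES pH 7.5 buffer, without (Method I) or with (Method II) 1% human serum albumin. Compound pre-incubated 15 min at room temperature; reaction 30 min at 37 °C; ATF2 Thr69 phosphorylation measured by ELISA (A450).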
# [2] = system: TNFα release from THP-1 cells; experiment: Inhibition of TNFα release from LPS-stimulated THP-1 cells, ELISA; format: cell-based; conditions: Homo sapiens, THP-1, THP-1 cells, read-out: [CELL] THP-1, IC50, TNF ALPHA, ELISA
# Summary of the method: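 Human THP-1 monocytes, 10^6 cells/ml in RPMI with 10% FBS, no serum or 1% HSA, preincubated 30 min at 37 °C with compound (≤0.5% DMSO), then stimulated with 10 μg/ml LPS for 18 h. Supernatant TNFα measured by ELISA; IC50 from non-linear dose-response regression.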
IC50 [1] [nM],IC50 [2] [nM],melting point [°C],Structure (SMILES)
9.5,68.1,115 to 117,"O=C(Nc1ccc(Oc2ccnc(NC3(CO)CCCC3)n2)c2ccccc12)c1cc(F)cc(N2CCOCC2)c1 [Compound B350, 3-Fluoro-N-{4-[(2-{[1-(hydroxymethyl)cyclopentyl]amino}pyrimidin-4-yl)oxy]-1-naphthyl}-5-morpholin-4-ylbenzamide]"
27.1,274,92 to 94,"COC(CN(C)c1nccc(Oc2ccc(NC(=O)c3cc(F)cc(N4CCOCC4)c3)c3ccccc23)n1)OC [Compound B351, N-[4-({2-[(2,2-Dimethoxyethyl)(methyl)amino]pyrimidin-4-yl}oxy)-1-naphthyl]-3-fluoro-5-morpholin-4-ylbenzamide]"
32.5,518,97 to 98,"C#CCN(C)c1nccc(Oc2ccc(NC(=O)c3cc(F)cc(N4CCOCC4)c3)c3ccccc23)n1 [Compound B352, 3-Fluoro-N-[4-({2-[methyl(prop-2-yn-1-yl)amino]pyrimidin-4-yl}oxy)-1-naphthyl]-5-morpholin-4-ylbenzamide]"
7.8,48.7,128 to 129,"CN1CCC(Nc2nccc(Oc3ccc(NC(=O)c4cc(F)cc(N5CCOCC5)c4)c4ccccc34)n2)CC1 [Compound B362, 3-Fluoro-N-[4-({2-[(1-methylpiperidin-4-yl)amino]pyrimidin-4-yl}oxy)-1-naphthyl]-5-morpholin-4-ylbenzamide]"
5.8,78,196 to 197,"O=C(Nc1ccc(Oc2ccnc(N3CCC3)n2)c2ccccc12)c1cc(F)cc(N2CCOCC2)c1 [Compound B363, N-{4-[(2-azetidin-1-ylpyrimidin-4-yl)oxy]-1-naphthyl}-3-fluoro-5-morpholin-4-ylbenzamide]"
27.3,412,118 to 120,"C[C@@H]1CN(c2nccc(Oc3ccc(NC(=O)c4cc(F)cc(N5CCOCC5)c4)c4ccccc34)n2)C[C@H](C)O1 [Compound B364, N-[4-({2-[(2R,6S)-2,6-Dimethylmorpholin-4-yl]pyrimidin-4-yl}oxy)-1-naphthyl]-3-fluoro-5-morpholin-4-ylbenzamide]"
28,56.7,106 to 108,"CN(C)C1CCN(c2nccc(Oc3ccc(NC(=O)c4cc(F)cc(N5CCOCC5)c4)c4ccccc34)n2)C1 (stereo not drawn) [Compound B365, N-[4-({2-[3-(Dimethylamino)pyrrolidin-1-yl]pyrimidin-4-yl}oxy)-1-naphthyl]-3-fluoro-5-morpholin-4-ylbenzamide]"
28.3,386,214 to 216,"CC(C)(C)OC(=O)NC1CCN(c2nccc(Oc3ccc(NC(=O)c4cc(F)cc(N5CCOCC5)c4)c4ccccc34)n2)CC1 [Compound B366, t-Butyl-{1-[4-({4-[(3-fluoro-5-morpholin-4-ylbenzoyl)amino]-1-naphthyl}oxy)pyrimidin-2-yl]piperidin-4-yl}-carbamate]"
18.2,649,155 to 157,"CN(C(=N)N)c1nccc(Oc2ccc(NC(=O)c3cc(F)cc(N4CCOCC4)c3)c3ccccc23)n1 [Compound B367, N-[4-({2-[[amino(imino)methyl](methyl)amino]pyrimidin-4-yl}oxy)-1-naphthyl]-3-fluoro-5-morpholin-4-ylbenzamide]"
19.7,141,108 to 110,"O=C1CN(c2nccc(Oc3ccc(NC(=O)c4cc(F)cc(N5CCOCC5)c4)c4ccccc34)n2)CCN1 [Compound B368, 3-Fluoro-5-morpholin-4-yl-N-(4-{[2-(3-oxopiperazin-1-yl)pyrimidin-4-yl]oxy}-1-naphthyl)benzamide]"
2.9,33.3,122 to 124,"O=C(Nc1ccc(Oc2ccnc(NCC3OCCO3)n2)c2ccccc12)c1cc(F)cc(N2CCOCC2)c1 [Compound B369, N-[4-({2-[(1,3-dioxolan-2-ylmethyl)amino]pyrimidin-4-yl}oxy)-1-naphthyl]-3-fluoro-5-morpholin-4-ylbenzamide]"
21.1,330,96 to 98,"COCCN(C)c1nccc(Oc2ccc(NC(=O)c3cc(F)cc(N4CCOCC4)c3)c3ccccc23)n1 [Compound B370, 3-Fluoro-N-[4-({2-[(2-methoxyethyl)(methyl)amino]pyrimidin-4-yl}oxy)-1-naphthyl]-5-morpholin-4-ylbenzamide]"
26.4,37.1,118 to 120,"O=C(Nc1ccc(Oc2ccnc(NC3CCCCC3)n2)c2ccccc12)c1cc(F)cc(N2CCCCC2)c1 [Compound B371, N-(4-{[2-(cyclohexylamino)pyrimidin-4-yl]oxy}-1-naphthyl)-3-fluoro-5-piperidin-1-ylbenzamide]"
8.4,217,182 to 184,"CN1CCN(c2nccc(Oc3ccc(NC(=O)c4cc(F)cc(N5CCCCC5)c4)c4ccccc34)n2)CC1 [Compound B372, 3-Fluoro-N-(4-{[2-(4-methylpiperazin-1-yl)pyrimidin-4-yl]oxy}-1-naphthyl)-5-piperidin-1-ylbenzamide]"
4.3,147,87 to 88,"COCCNc1nccc(Oc2ccc(NC(=O)c3cc(F)cc(N4CCCCC4)c3)c3ccccc23)n1 [Compound B374, 3-Fluoro-N-[4-({2-[(2-methoxyethyl)amino]pyrimidin-4-yl}oxy)-1-naphthyl]-5-piperidin-1-ylbenzamide]"
17.1,225,195 to 196,"O=C(Nc1ccc(Oc2ccnc(N3CCC4(CC3)OCCO4)n2)c2ccccc12)c1cc(F)cc(N2CCCCC2)c1 [Compound B378, N-(4-{[2-(1,4-Dioxa-8-azaspiro[4.5]dec-8-yl)pyrimidin-4-yl]oxy}-1-naphthyl)-3-fluoro-5-piperidin-1-ylbenzamide]"
15.1,530,175 to 176,O=C(Nc1ccc(Oc2ccnc(-n3ccnc3)n2)c2ccccc12)c1cc(F)cc(N2CCCCC2)c1 [Compound B379]
6.6,> 1000,160 to 162,"N#CNc1nccc(Oc2ccc(NC(=O)c3cc(F)cc(N4CCCCC4)c3)c3ccccc23)n1 [Compound B380, N-(4-{[2-(Cyanoamino)pyrimidin-4-yl]oxy}-1-naphthyl)-3-fluoro-5-piperidin-1-ylbenzamide]"
87.8,590,145 to 146,"CC1CCN(c2nccc(Oc3ccc(NC(=O)c4cc(F)cc(N5CCCCC5)c4)c4ccccc34)n2)CC1 [Compound B381, 3-Fluoro-N-(4-{[2-(4-methylpiperidin-1-yl)pyrimidin-4-yl]oxy}-1-naphthyl)-5-piperidin-1-ylbenzamide]"
6.9,185,157 to 158,"O=C(Nc1ccc(Oc2ccnc(NC3CC3)n2)c2ccccc12)c1cc(F)cc(N2CCCCC2)c1 [Compound B382, N-(4-{[2-(Cyclopropylamino)pyrimidin-4-yl]oxy}-1-naphthyl)-3-fluoro-5-piperidin-1-ylbenzamide]"
11.4,311,112 to 114,"O=C(Nc1ccc(Oc2ccnc(NC3CCC3)n2)c2ccccc12)c1cc(F)cc(N2CCCCC2)c1 [Compound B383, N-(4-{[2-(Cyclobutylamino)pyrimidin-4-yl]oxy}-1-naphthyl)-3-fluoro-5-piperidin-1-ylbenzamide]"
6.3,90.3,117 to 119,"O=C(Nc1ccc(Oc2ccnc(NCC3CC3)n2)c2ccccc12)c1cc(F)cc(N2CCCCC2)c1 [Compound B384, N-[4-({2-[(cyclopropylmethyl)amino]pyrimidin-4-yl}oxy)-1-naphthyl]-3-fluoro-5-piperidin-1-ylbenzamide]"
95.6,> 1000,102 to 104,"CC(C)N(C)c1nccc(Oc2ccc(NC(=O)c3cc(F)cc(N4CCCCC4)c3)c3ccccc23)n1 [Compound B385, 3-Fluoro-N-[4-({2-[isopropyl(methyl)amino]pyrimidin-4-yl}oxy)-1-naphthyl]-5-piperidin-1-ylbenzamide]"
5.7,309,182 to 184,"O=C(Nc1ccc(Oc2ccnc(N3CCC(O)CC3)n2)c2ccccc12)c1cc(F)cc(N2CCCCC2)c1 [Compound B387, 3-Fluoro-N-(4-{[2-(4-hydroxypiperidin-1-yl)pyrimidin-4-yl]oxy}-1-naphthyl)-5-piperidin-1-ylbenzamide]"
42.7,102,101 to 102,"CC1CCC(Nc2nccc(Oc3ccc(NC(=O)c4cc(F)cc(N5CCCCC5)c4)c4ccccc34)n2)CC1 (stereo not drawn) [Compound B388, 3-Fluoro-N-[4-({2-[(4-methylcyclohexyl)amino]pyrimidin-4-yl}oxy)-1-naphthyl]-5-piperidin-1-ylbenzamide]"
2.1,89,92 to 94,"O=C(Nc1ccc(Oc2ccnc(NCCN3CCCC3)n2)c2ccccc12)c1cc(F)cc(N2CCCCC2)c1 [Compound B389, 3-Fluoro-5-piperidin-1-yl-N-[4-({2-[(2-pyrrolidin-1-ylethyl)amino]pyrimidin-4-yl}oxy)-1-naphthyl]benzamide]"
